Spontaneous mutation frequency data for two compounds are collected here from article PMC8595825 (Journal of medicinal chemistry, 2021).

The subject of the test is M. tuberculosis H37Rv. It is filed as cell-based, Mycobacterium tuberculosis H37Rv. The note with it: 1× to 8× MIC90, 8 weeks, 3 × 10^8 cells.

`CCCCCCCCn1c2c([n+](CCCC)c1C)C(=O)c1ccccc1C2=O.[Br-]` [compound 32]: the spontaneous mutation frequency was < 3 × 10^−9 /CFU. Under `CCCCCCCn1c2c([n+](CCCCC)c1C)C(=O)c1ccccc1C2=O.[Br-]` [compound 48] stands < 3 × 10^−9 /CFU.
